# Measured values reported in US20070197562A1, “Remedies for prostatic hypertrophy” (Yokohama TLO Company, Ltd., priority 2004, published 2007).
# Experiments:
# Type in all cases: cell-based, human
# PrSC cells [1] = experiment: Telmisartan: proliferation of EGF- or TNFα-stimulated PrSC cells (Example 7); settings: 5 days, P<0.01
# Method: (§1) PrSC cells were plated out on a 12-well dish at 25,000 cells per well, and cultured for 5 days in a phenol red-free F12 culture medium supplemented with 0.1% (W/V) BSA containing EGF (10 ng/mL) or TNFα (1 ng/mL), each alone or in combination with telmisartan (50 μM). Then the number of cells was counted. The group with no additive was used as the control group. Each group contained four wells (n=4).
# PrSC cells [2] = experiment: IL-6 secretion by PrSC cells (CLEIA); settings: 24 hours
# Method: (§2) PrSC cells prepared in the same manner as Example 1, or F-1 or FT-FB cells prepared as described above were placed in a 6-well dish at 10^5 cells per well, cultured at 5% CO2 and 37° C. for 1 day (24 hours), and stimulated by the addition of TGFβ (1 ng/mL), TNFα (1 ng/mL), EGF (2.5 or 10 ng/mL), or angiotensin II (1 μM or 10 μM) (n=3). CV was added as the AIIR blocker to some wells 4 hours before adding the reagents. The culture media were collected 24 hours after adding the reagents, and the concentrations of IL-6 were determined by the CLEIA method.
# PrSC cells [3] = experiment: Proliferation of PrSC cells stimulated with angiotensin II, TGFβ or EGF (cell count, Examples 1-3); settings: 5 days
# Method: A Cell Line Derived from Normal Human Prostatic stromal cells, i.e., PrSC cells, was purchased from Sanko Junyaku Co. Ltd. (Normal Human Prostate Stromal Cells, catalogue number CC-2508), and maintained by subculturing them in a phenol red-free RPMI medium under conditions of 5% CO2 and 37° C.
# The PrSC cells (10^4 cells) were placed in a 12-well dish, and cultured in a phenol red-free medium containing 0.1% (W/V) BSA under conditions of 5% CO2 and 37° C. for several days. Then, 1 μM or 10 μM of angiotensin II was added. To some wells, CV (10 μM; hereinafter CV was used at this concentration unless otherwise noted) was added as an AIIR blocker 4 hours before adding angiotensin II. Each group contained four wells (n=4). After culturing the cells at 5% CO2 and 37° C. for 5 days, the number of all cells in each of the wells was counted.
# The effect of an AIIR blocker was examined in the same manner as Example 1, except for that 10 ng/mL of TGFβ was used in place of angiotensin II.
# The effect of an AIIR blocker was examined in the same manner as Example 1, except for that 10 ng/mL of EGF was used in place of angiotensin II.
# [4] = test system: MAPK phosphorylation in PC-3 cells; experiment: MAPK phosphorylation in PC-3 cells cultured in PrSC conditioned media (Western blotting)
# Method: Stromal cells (PrSC) were cultured in a phenol red-free F12 medium containing 0.1% (W/V) BSA, to which angiotensin II (10 μM) was added alone or in combination with losartan (“Los”; 10 μM). The culture medium was collected 24 hours after the addition, and used as a conditioned medium (“0.1% BSA-CM”).
# Stromal cells (PrSC) were cultured in a phenol red-free F12 medium containing 10% (V/V) FCS, to which CV (10 μM) or losartan (10 μM) was added. The culture medium was collected 24 hours after the addition, and used as a conditioned medium (“10% FCS-CM”) with no addition of angiotensin II. 10% FCS-CM with no additive was also prepared in the same manner.
# 3,000,000 PrSC cells were used for each of the above 10-1 and 10-2
# PC3 cells (prostate cancer cells) were cultured for 24 hours in a phenol red-free F12 medium supplemented with 0.1% (W/V) BSA. Then the medium was replaced with one of the conditioned media prepared as described above, and the cells were collected 10 minutes later. Total cellular proteins were extracted as described below. Similar protocol was done in parallel for PC-3 cells without using any conditioned medium (“Control”).
# The cells were washed twice with an ice-cold phosphate buffer (PBS), and lysed in 200 μL of an ice-cold cell lysis solution (lysis buffer; 20 mM of Tris (pH8.0), 137 mM of NaCl, 10% of glycerol, 0.1% of SDS, 0.5% of Nonidet P-40 (trade name), 100 mM of sodium fluoride, […] of sodium orthovanadate, 1 mM of EGTA, 2 mM of phenylmethylsulfonyl fluoride, […] of leupeptin, and […] of aprotinin). The mixture was centrifuged. Subsequently, the supernatant was collected.
# The resulting protein sample was subjected to SDS-PAGE in the routine manner, and the MAPK phosphorylation was determined by Western blotting using an anti-phospho-MAP kinase antibody or an anti-MAP kinase antibody) (both were purchased from Cell Signaling Technology (Beverly, Mass.)) as the detecting antibody.
# From the obtained results, the expression levels of pMAPK and MAPK bands were determined using NIH image software. On the basis of the results, the pMAPK/MAPK ratio in each lane was calculated, and then the ratio (“pMAPK ratio”) of the obtained value of each lane to that of the lane 1 (“Control”) was calculated by taking the value of Control as 1.
# PrSC cells [5] = experiment: Losartan: proliferation of TNFα-stimulated PrSC cells (Example 9); settings: 5 days
# Method: as §1, with “containing” for “containing EGF (10 ng/mL) or”, “ng/mL) and/or losartan (10” for “ng/mL), each alone or in combination with telmisartan (50”
# PrSC cells [6] = experiment: Losartan: proliferation of PrSC cells in 10% FCS (Example 8); settings: 5 days
# Method: PrSC cells were plated out on a 12-well dish at 20,000 cells per well, and cultured for 5 days in a phenol red-free F12 culture medium containing 10% (V/V) FCS and losartan at various concentrations (0, 0.1, 1.0, and 10 μM). Then the number of cells was counted. The group with no additive was used as the control group. Each group contained four wells (n=4).
# [7] = test system: MAPK phosphorylation in PrSC cells; experiment: MAPK phosphorylation in PrSC cells (Western blotting)
# Method: Stromal cells (PrSC) were cultured for 24 hours in a phenol red-free F12 medium containing 0.1% (W/V) BSA, to which angiotensin II (10 μM) or TNFα (1 ng/mL) was added each alone or in combination with either CV (10 μM) or losartan (“Los”; 10 μM) by replacing the medium. The cells were collected 10 minutes after the addition, and the total cellular proteins were extracted in the same manner as described in Example 10. Similarly, the cells cultured with no additive and the cells added with either CV or Los alone were processed in parallel. 3,000,000 PrSC cells were used for each sample.
# These samples were subjected to Western blotting in the same manner as described in Example 10.
# PrSC cells [8] = experiment: Olmesartan: proliferation of TNFα-stimulated PrSC cells (Example 6); settings: TNFα (1 ng/mL) alone; 5 days; P<0.01
# Method: as §1, with “20,000” for “25,000”, “containing” for “containing EGF (10 ng/mL) or”, “ng/mL)” for “ng/mL), each”, “olmesartan (1” for “telmisartan (50”
# F-1 cells = experiment: IL-6 secretion by primary-cultured F-1 cells (CLEIA); settings: angiotensin II 1 μM and 10 μM alone; 24 hours
# Method: The primary-cultured stromal cells (F-1 cells) derived from a patient with prostatic hypertrophy were prepared as described below.
# Tissues obtained from the patient were placed in a 50 mL centrifuge tube containing 20 mL of a medium (RPMI 1640, GIBCO 11835-030) supplemented with 10% (V/V) FBS (filtron) and mg/mL penicillin/streptomycin (GIBCO 15140-122), and allowed to stand at 4° C. for 1 hour or longer. Subsequently, the tissues were placed in a 10-cm dish, and cut into pieces of about 1 mm square. Blood vessels and the like were removed. At that time, to remove excessive blood (if necessary), the tissues were washed by adding 20 mL of the medium and centrifuging the mixture for 5 minutes at 1,000 rpm, followed by aspiration of the supernatant. […]
# as §2, with “CV was added as the AIIR blocker to some wells 4 hours before adding the reagents.” left out
compound,measurement,setting,value
"EGF: growth factor used to stimulate cells (NSDSECPLSHDGYCLHDGVCMYIEALDKYACNCVVGYIGERCQYRDLKWWELR; Epidermal growth factor; UniProt P01133 971-1023, looked up)",number of cells vs control,PrSC cells [1]; EGF (10 ng/mL) alone,significantly increased
same,IL-6 secretion vs control,PrSC cells [2]; EGF 2.5 and 10 ng/mL alone,dose-dependent increase
same,number of cells vs control,PrSC cells [3]; EGF 10 ng/mL alone,significant increase
TGFβ,IL-6 secretion vs control,PrSC cells [2]; TGFβ (1 ng/mL) alone,significantly promoted
same,"number of cells, increase vs control",PrSC cells [3]; TGFβ 10 ng/mL alone,more than 2 fold
CCCCc1nc(Cl)c(CO)n1Cc1ccc(-c2ccccc2-c2nn[nH]n2)cc1 [losartan],MAPK phosphorylation in PC-3 cells,"[4]; 0.1% BSA-CM from PrSC with angiotensin II (10 μM)+losartan (10 μM), lane 3 vs lane 2, 10 minutes",suppressed
same,MAPK phosphorylation in PC-3 cells,"[4]; 10% FCS-CM from PrSC with AIIR blocker 10 μM, no angiotensin II, lanes 5 and 6 vs lane 4, 10 minutes",suppressed
same,increase in the number of cells,"PrSC cells [5]; TNFα (1 ng/mL)+losartan (10 μM), P<0.02",significantly suppressed
same,cell proliferation vs control,PrSC cells [5]; losartan (10 μM) alone,showed no change
same,"cell proliferation, difference from control","PrSC cells [6]; losartan 10 μM, P<0.05",significant difference
same,cell proliferation vs control,"PrSC cells [6]; losartan 0.1, 1.0 and 10 μM",dose-dependently suppressed
same,MAPK phosphorylation in PrSC cells,"[7]; AIIR blocker 10 μM added alone, lanes 8 and 9",not caused
same,MAPK phosphorylation in PrSC cells,"[7]; TNFα (1 ng/mL) in combination with AIIR blocker 10 μM, lanes 6 and 7, 10 minutes",suppressed
same,MAPK phosphorylation in PrSC cells,"[7]; angiotensin II (10 μM) in combination with AIIR blocker 10 μM, lanes 3 and 4, 10 minutes",suppressed
TNFα,number of cells vs control,"PrSC cells [5]; TNFα (1 ng/mL) alone, P<0.05",significantly increased
same,number of cells vs control,PrSC cells [1]; TNFα (1 ng/mL) alone,significantly increased
same,MAPK phosphorylation in PrSC cells,"[7]; TNFα (1 ng/mL) alone, lane 5",strongly activated
same,number of cells vs control,PrSC cells [8],significantly increased
same,IL-6 secretion vs control,PrSC cells [2]; TNFα (1 ng/mL) alone,significantly promoted
"CCCc1nc2c(C)cc(-c3nc4ccccc4n3C)cc2n1Cc1ccc(-c2ccccc2C(=O)O)cc1 [telmisartan, 4′-{[4-methyl-6-(1-methyl-2-benzimidazolyl)-2-propyl-1-benzimidazolyl]methyl}-2-biphenylcarboxylic acid]",increase in the number of cells,PrSC cells [1]; EGF (10 ng/mL)+telmisartan (50 μM),significantly suppressed
same,increase in the number of cells,PrSC cells [1]; TNFα (1 ng/mL)+telmisartan (50 μM),significantly suppressed
"angiotensin II (DRVYIHPF; Angiotensin-2; UniProt P01019 25-32, looked up) [stimulant added to cells]",MAPK phosphorylation in PC-3 cells,"[4]; 0.1% BSA-CM from PrSC with angiotensin II (10 μM) alone, lane 2",caused
same,MAPK phosphorylation in PrSC cells,"[7]; angiotensin II (10 μM) alone, lane 2",strongly activated
same,numbers of cells vs control,PrSC cells [3]; angiotensin II 1 μM or 10 μM alone,concentration-dependent increase
same,IL-6 secretion vs control,F-1 cells,significant increase in a concentration-dependent manner
